Assay results from patent US20070117842A1, “Polymorph of 4-[3-chloro-4-(cyclopropylaminocarbonyl)aminophenoxy]-7-methoxy-6- quinolinecarboxamide and a process for the preparation of the same” (priority 2003, published 2007).

Key:
[1] = system: small cell lung cancer cell line H-526 expressing c-Kit kinase; assay: Effect on cell proliferation stimulated by SCF; assay type: cell-based; details: Homo sapiens, NCI-H526; H-526 cells, SCF stimulation, 7th day, Cell Counting Kit-8; read-out: IC50 (concentration required for 50% inhibition of the cell proliferation)
Method: After culturing, H-526 cells were washed with PBS three times and were suspended in an RPMI1640 medium containing 0.1% BSA (Sigma Corporation) (hereinafter abbreviated as “BSA-RPMI1640”) at 1.0×10^5 cells/ml. […] After color development, the absorbance of each well was determined using a MTP-32 plate reader (Colona Electric Co., Ltd.) at a measuring wavelength of 450 nm and at a reference wavelength of 660 nm. The absorbance of each well was subtracted by the absorbance of the well without addition of SCF, and then the ratio of the absorbance of the well with addition of the test substance to the ratio of the absorbance of the well without addition of the test substance was determined. This ratio was used to calculate the concentration of the test substance required for 50% inhibition of the cell proliferation (IC50).

c-Kit kinase [2] = biological target: T1, c-Kit kinase (Homo sapiens, UniProt P10721); assay: Effect on c-Kit kinase phosphorylation in H-526 tumor transplanted to nude mice (immunoblot); assay type: in vivo, Balb/c nu/nu mice; parameters: from tissue; host or cells: H-526 tumour xenograft extracted from Balb/c nu/nu mice; details: H-526 tumor in nude mice
Method: 0.1 ml of a H-526 cell suspension prepared at a concentration of 5.0×10^7 cells/ml, was transplanted to the subcutaneous parts of the right latus of 6-week female Balb/c nu/nu mice (purchased from Charles River Laboratories, Inc.). The animals were then divided into a vehicle control group (solvent-administered group) and a test substance (4-(3-chloro-4-(cyclopropylaminocarbonyl)aminophenoxy)-7-methoxy-6-quinolinecarboxamide) administered group at the point the tumor volume reached 300-1000 mm^3: the test substance was administered to the latter group. The extracted tumor was placed in a cell lysate buffer (50 mM HEPES (pH 7.4), 150 mM NaCl, 10% glycerol, 1% Triton X-100, 1.5 mm MgCl2, 1 mM EDTA, 100 mM NaF, 1 mM PMSF, 10 μg/ml aprotinin, 50 μg/ml leupeptin, 1 μg/ml peptatin A, 1 mM Na3VO4, 25 mM , βglycerophosphate, and phosphatase inhibitor cocktail 11) and homogenized. After centrifugation, the supernatant was protein quantified, and a 3×SDS sample loading buffer was added to prepare a cell lysate sample. Subsequently, the cell lysate was heat-treated at 94° c. for 10 minutes and cryopreserved at −20° c.
The cell lysate sample which was equivalent to 30 μg of protein was electrophoresed on a 4-20% gradient polyacrylamide gel (Daiichi Pure Chemicals Co., Ltd.). After electrophoresis, the sample was transferred to a PVDF membrane (Amersham Pharmacia Biotech Inc.) for 3 hours. In order to assay phosphorylated c-Kit, c-Kit and β-actin, immunoblot was performed using a phospho-c-kit (Tyr719) antibody (Cell Signaling Technologies, Inc.), an anti c-Kit antibody (Cell Signaling Technologies, Inc.) and an anti β-actin antibody (Sigma) as a primary antibody and an anti-rabbit IgG, HRP-linked antibody (Cell Signaling Technologies, Inc.) as a secondary antibody. After the membrane was washed, it was developed with a Super Signal (Pierce Biotechnology, Inc.).

H-526 tumor = assay: Effect on growth of H-526 tumor transplanted to nude mice; assay type: in vivo, Balb/c nu/nu mice
Method: H-526 cells were cultured in a 5% CO2 incubator (37° c.) using an RPMI1640 medium containing 10% FCS. After the culture medium was collected, H-526 cells were washed with PBS twice and were suspended in PBS at 5.0×10^7 cells/ml. This cell suspension (0.1 ml) was transplanted to the subcutaneous parts of the right flank of 6-week female Balb/c nu/nu mice (purchased from Charles River Laboratories, Inc.). After transplantation, administration of a test substance (4-(3-chloro-4-(cyclopropylaminocarbonyl)aminophenoxy)-7-methoxy-6-quinolinecarboxamide) was started at the point the tumor volume reached approximately 150 mm^3, and thus, oral administration was conducted twice daily for a period of 14 days. The test substance was suspended in a 0.5% methylcellulose solution (Wako Pure Chemical Industries Co., Ltd.) so as to give a dose of 0.1 ml/10 g body weight.
The tumor volume was measured with a caliper twice weekly during the administration period. The long and short diameters of the tumor were measured with a caliper and the tumor volume was calculated according to the equation: ½×long diameter×short diameter×short diameter. Here, the experiment was conducted in a vehicle control group of 10 animals (solvent-administered group) as well as in a test substance administered group of 5 animals.

c-Kit kinase [3] = biological target: T1, c-Kit kinase; assay: Effect on c-Kit kinase phosphorylation by SCF stimulation (immunoblot); assay type: cell-based; parameters: in the small cell lung cancer cell line H-526 expressing c-Kit kinase; host or cells: H-526 small cell lung cancer cells; details: H-526 cells, 1 hour with test substance, SCF 5 minutes, phospho-c-kit (Tyr719) immunoblot
Method: 4-(3-Chloro-4-(cyclopropylaminocarbonyl)aminophenoxy)-7-methoxy-6-quinolinecarboxamide was tested for its effect on the phosphorylation of the c-Kit kinase molecule by SCF stimulation in the small cell lung cancer cell line H-526 expressing c-Kit kinase.
H-526 cells were cultured in a 5% CO2 incubator (37° c.) using an RPMI1640 medium containing 10% FCS. After culturing, H-526 cells were washed with PBS three times and were suspended in a BSA-RPMI1640 medium at 5.0×10^5 cells/ml. Each 1 ml of this cell suspension was inoculated to the well of a 24-well plate and the suspension was cultured in a 5% CO2 incubator (37° c.) for 6 hours. After 6-hours culturing, 1 ml of BSA-RPMI1640 containing a diluted test substance (4-(3-Chloro-4-(cyclopropylaminocarbonyl)aminophenoxy)-7-methoxy-6-quinolinecarboxamide) was added to each well and culturing was carried out in a 5% CO2 incubator (37° c.) for 1 hour. Additional culturing was then carried out in a 5% CO2 incubator (37° c.) for 5 minutes after the addition of 10 μl of SCF (10 μg/ml, R&D Corporation). After 5-minutes culturing, the cells were washed with PBS and 100 μl of SDS sample loading buffer was added to the cells to prepare a cell lysate sample. After the sample was heat-treated at 94° c. for 10 minutes, it was cryopreserved at −20° c. […]

T1 sequence (P10721 26-976): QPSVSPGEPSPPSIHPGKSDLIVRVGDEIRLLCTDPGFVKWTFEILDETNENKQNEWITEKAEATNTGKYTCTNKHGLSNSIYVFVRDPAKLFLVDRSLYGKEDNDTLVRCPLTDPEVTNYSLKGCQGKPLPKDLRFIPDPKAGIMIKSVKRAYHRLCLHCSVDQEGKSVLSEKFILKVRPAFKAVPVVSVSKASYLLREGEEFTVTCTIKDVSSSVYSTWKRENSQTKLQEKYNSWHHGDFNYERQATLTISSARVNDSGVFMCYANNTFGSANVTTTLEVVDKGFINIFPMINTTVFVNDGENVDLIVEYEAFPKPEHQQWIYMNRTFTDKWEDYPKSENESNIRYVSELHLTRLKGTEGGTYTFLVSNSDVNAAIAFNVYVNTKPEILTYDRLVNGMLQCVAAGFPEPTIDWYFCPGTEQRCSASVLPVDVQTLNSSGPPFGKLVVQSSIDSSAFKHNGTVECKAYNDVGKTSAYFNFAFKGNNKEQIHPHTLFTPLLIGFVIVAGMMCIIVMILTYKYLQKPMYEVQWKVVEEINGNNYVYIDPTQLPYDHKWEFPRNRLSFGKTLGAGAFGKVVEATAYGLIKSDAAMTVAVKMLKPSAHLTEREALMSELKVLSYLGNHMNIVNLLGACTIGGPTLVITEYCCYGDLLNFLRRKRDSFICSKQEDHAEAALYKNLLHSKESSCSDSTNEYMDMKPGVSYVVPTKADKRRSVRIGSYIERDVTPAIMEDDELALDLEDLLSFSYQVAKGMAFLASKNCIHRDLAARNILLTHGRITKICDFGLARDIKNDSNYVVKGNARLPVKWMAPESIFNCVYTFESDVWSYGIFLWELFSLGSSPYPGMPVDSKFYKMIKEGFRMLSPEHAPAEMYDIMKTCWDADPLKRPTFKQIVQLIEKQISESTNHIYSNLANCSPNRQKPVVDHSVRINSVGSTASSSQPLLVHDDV

| SMILES | IC50 [1] [nM] | c-Kit and β-actin in tumor tissue (c-Kit kinase [2]; 30 or 100 mg/kg) | phosphorylated c-Kit in tumor tissue (c-Kit kinase [2]; 30 or 100 mg/kg) | growth of the nude mouse transplanted H-526 tumor (tumor volume) (H-526 tumor; oral, twice daily for 14 days) | c-Kit kinase phosphorylation in the presence of SCF (c-Kit kinase [3]) | phosphorylated c-Kit in tumor tissue (c-Kit kinase [2]; 160 mg/kg) | anti-tumor effect (H-526 tumor; H-526 tumor in nude mice, 160 mg/kg) |
| --- | --- | --- | --- | --- | --- | --- | --- |
| COc1cc2nccc(Oc3ccc(NC(=O)NC4CC4)c(Cl)c3)c2cc1C(N)=O [4-(3-chloro-4-(cyclopropylaminocarbonyl)aminophenoxy)-7-methoxy-6-quinolinecarboxamide] | 9.46 | remained unchanged | completely inhibited phosphorylation | suppressed the growth of the nude mouse transplanted H-526 tumor in a dose-dependent manner | suppressed the c-Kit kinase phosphorylation that would take place in the presence of SCF in a concentration-dependent manner |  |  |
| Cc1ccc(NC(=O)c2ccc(CN3CCN(C)CC3)cc2)cc1Nc1nccc(-c2cccnc2)n1 [STI571, reference compound] |  |  |  |  |  | partially inhibited phosphorylation | showed little anti-tumor effect |
